Assay results published in patent publication US10792301B2, “Therapeutic polysaccharide midi-GAGR and related materials and methods” (priority 2015, dated 2020).

Columns and labels:
[1] = system: pCREB in mouse cortical neurons; assay: Nuclear pCREB immunostaining in mouse cortical neurons (Example 4); assay type: cell-based; conditions: 48 h; 1 μM midi-GAGR, dextran, alginate; 0.1 μM LA-GAGR; 0.01 μM HA-GAGR
Experimental: (§1) To analyze the effect of polysaccharides on neurite outgrowth, primary mouse cortical neurons were treated with vehicle (H2O) or 1 μM of dextran, alginate, or midi-GAGR, 0.01 μM of HA-GAGR, or 0.1 μM of LA-GAGR for 2 days prior to immunocytochemistry using anti-α-tubulin antibody and secondary Alexa488nm antibody. An etched grid coverslip containing 200 numbered boxes was used to select neurons objectively for image acquisition and analysis. A total of 24 boxes were randomly selected per treatment group. All the neurons having total neurite length longer than 4 times of the diameter of neuron cell body were chosen for image analysis. The total length of the neurites of each neuron was measured using Metamorph and used to calculate average total neurite length. […] The intensity of the staining of nuclear pCREB was measured using Metamorph and used to calculate average intensity. In addition, the phosphorylation of CREB in the cytosols of mouse cortical neurons treated with polysaccharides were detected by immunoblotting. […] The protein bands on blots recognized by anti-pCREB (Santa Cruz Biotechnologies) and anti-CREB antibodies were detected on Amersham Hyperfilm™ ECL films (GE Healthcare Life Science) using SuperSignal® West Pico Chemiluminescent Substrate (Thermo Scientific). […]

[2] = system: primary mouse cortical neurons (E17, DIV4); assay: Neurite outgrowth in primary mouse cortical neurons; assay type: cell-based; conditions: 2 days; 1 μM midi-GAGR, dextran, alginate; 0.1 μM LA-GAGR; 0.01 μM HA-GAGR
Experimental: To analyze the effect of polysaccharides on neurite outgrowth, primary mouse cortical neurons were treated with vehicle (H2O) or 1 μM of dextran, alginate, or midi-GAGR, 0.01 μM of HA-GAGR, or 0.1 μM of LA-GAGR for 2 days prior to immunocytochemistry using anti-α-tubulin antibody and secondary Alexa488nm antibody. An etched grid coverslip containing 200 numbered boxes was used to select neurons objectively for image acquisition and analysis. A total of 24 boxes were randomly selected per treatment group. All the neurons having total neurite length longer than 4 times of the diameter of neuron cell body were chosen for image analysis. The total length of the neurites of each neuron was measured using Metamorph and used to calculate average total neurite length. To examine the effect of polysaccharides on the phosphorylation (activation) of nuclear CREB, neurons were stained with anti-pCREB antibody (Abcam & Santa Cruz biotechnologies, 2nd antibody with Alexa568nm), anti-α-tubulin antibody (Sigma, 2nd antibody with Alexa488nm), and DAPI (Sigma) after two-day incubation with vehicle (H2O) or 1 μM of dextran, alginate, or midi-GAGR, 0.01 μM of HA-GAGR, or 0.1 μM of LA-GAGR. […] The images of neurons on coverslips were taken by confocal microscopy at the same gain (850), offset (˜0.01) and exposure time (2 sec). The intensity of the staining of nuclear pCREB was measured using Metamorph and used to calculate average intensity. In addition, the phosphorylation of CREB in the cytosols of mouse cortical neurons treated with polysaccharides were detected by immunoblotting. Primary mouse neurons were dissected from 16 mouse embryos (E17) and plated in the wells of 6-well plates (1×10^6 cells/well), differentiated for 6 days, and treated with polysaccharides for 48 h. […] The protein bands on blots recognized by anti-pCREB (Santa Cruz Biotechnologies) and anti-CREB antibodies were detected on Amersham Hyperfilm™ ECL films (GE Healthcare Life Science) using SuperSignal® West Pico Chemiluminescent Substrate (Thermo Scientific).

[3] = system: pCREB in mouse cortical neurons; assay: pCREB immunoblotting of neuron cytosols; assay type: cell-based; conditions: 48 h; 1 μM midi-GAGR, dextran, alginate; 0.1 μM LA-GAGR; 0.01 μM HA-GAGR
Experimental: as §1

[4] = system: Mouse cortical neurons (E17, DIV5); assay: LIVE/DEAD assay, pre-treated mouse cortical neurons with 4HNE, H2O2 or Aβ42; assay type: cell-based; conditions: pre-treatment 24 h (1 μM midi-GAGR, dextran, alginate; 0.1 μM LA-GAGR; 0.01 μM HA-GAGR); for neuron death after Aβ42 peptide: 2 μM Aβ42 48 h, vehicle about 30%; for neuron death after 4HNE: 10 μM 4HNE 24 h, vehicle ~26%; for neuron death after H2O2: 50 μM H2O2 24 h, vehicle ~25%
Text: (§2) The protective effect of polysaccharides on primary cortical neurons from 4HNE, H2O2, and Aβ42 peptide (Sigma) was examined using LIVE/DEAD® Viability/Cytotoxicity Assay Kit (Life Technologies). Female pregnant mice (BALB/C, E17, Charles River Laboratories International, Inc.) or female pregnant SD rats (E17, bred in house) were anesthetized and dissected to obtain 8-9 embryos per animal. Cortical neurons were isolated from embryonic brains and differentiated on poly-L-lysine-coated coverslips in B27/neurobasal medium. For drug treatment before free radical treatment, mouse cortical neurons (5 days in vitro [DIV5.]) were treated with vehicle (H2O), 1 μM of 5 kD dextran (Sigma), alginate (Sigma), midi-GAGR, 0.01 μM of high acyl gellan gum (HA-GAGR, CPKelco Co.), or 0.1 μM of LA-GAGR for 24 h and then treated with 10 μM 4HNE or 50 μM H2O2 for 24 h, or 2 μM A[…]42 peptide for 48 h prior to viability/cytotoxicity assay. For drug co-treatment with free radicals, rat cortical neurons (DIV5) were treated with 1 μM of dextran, alginate, or midi-GAGR, 0.01 μM of HA-GAGR, or 0.1 μM of LA-GAGR along with either 10 μM 4HNE (24 h) or 2 μM Aβ42 peptide (48 h). To examine the extent to which midi-GAGR-mediated neuroprotection depends on FGFR1, rat cortical neurons (E17, DIV5) were pre-treated with 4 μM SU5402 (Sigma) for 6 h and treated with 10 μM 4HNE and either vehicle or 1 μM midi-GAGR for 24 h prior to cell viability/cytotoxicity assay. As controls, neurons were treated with SU5402, midi-GAGR, 4HNE, 4HNE plus midi-GAGR, or SU5402 plus midi-GAGR.
For cell viability/cytotoxicity measurement, neurons on glass coverslips were incubated in 1×PBS containing 2 μM calcein AM (live cells: green) and 4 μM ethidium homodimer-1 (dead cells: red) for 10 min at 37° C. Immediately thereafter, neurons were imaged by 10×objective using a fluorescence Olympus IX71 microscope (Olympus America Inc., Center Valley, Pa.) and, for the acquisition of high-quality images, using TCS SP5 multi-photon laser scanning confocal microscope.
Midi-GAGR attenuated neurite atrophy caused by free reactive radicals. It is now shown herein that midi-GAGR protect neurons from the death caused by free radical insults. The extent to which midi-GAGR protects the primary culture of rodent cortical neurons from 4HNE and H2O2 was determined. In addition to the radicals, amyloid β peptide (Aβ42) was also tested. Aβ42 peptide is a major causative factor that causes oxidative stress and neuron death. Mouse cortical neurons (E17, DIV5) were treated with 10 μM 4HNE (24 h), 50 μM H2O2 (24 h), or 2 μM Aβ42 peptide (48 h) after the treatment of the neurons with vehicle (H2O), midi-GAGR (1 μM), dextran (1 μM), alginate (1 μM), LA-GAGR (0.1 μM), or HA-GAGR (0.01 μM) for 24 h. The concentrations of 4HNE, H2O2, and Aβ42 peptide were chosen according to their patho-physiological concentrations. The concentrations of LA-GAGR and HA-GAGR were chosen because, within the same volume, the total numbers of sugar units in the polysaccharides at the concentrations are close to that of 1 μM midi-GAGR. The viability of neurons was assessed using LIVE/DEAD® Viability/Cytotoxicity Assay Kit in which membrane-permeant calcein AM is cleaved by esterase in live cells, thus yielding green fluorescence, and membrane-impermeant ethidium homodimer-1 stains the nucleic acids of plasma membrane-compromised cells with red fluorescence. The numbers of green (live) and red (dead) neurons in each condition were counted using Metamorph. Although the intensities of green fluorescent signals in neurons treated with either free radicals or Aβ42 peptide were weak, the neurons were included in the counting. About 8-9% of vehicle-treated neurons died during the process of live/dead cell assay (FIGS. 23A-23F, FIGS. 24A-24C).

[5] = ABTS Antioxidant Assay Kit; assay type: biochemical; conditions: 10 μM polysaccharide
Experimental: The antioxidant capacity of midi-GAGR was measured using ABTS Antioxidant Assay Kit (Zenbio Co.). […] This was slightly stronger than antioxidant capacity of LA-GAGR (10 μM LA-GAGR=15.4 μM trolox) (Table 2).

[6] = system: pCREB in mouse cortical neurons (E17, DIV6); assay: Nuclear pCREB in midi-GAGR-treated neurons after signaling inhibitors; assay type: cell-based; conditions: inhibitor 6 h (SU5402 4 μM, staurosporine 3 nM, U0126 10 μM, LY294002 20 μM, KN-62 10 μM, PF-573228 1 μM), then 1 μM midi-GAGR 48 h
Experimental: To analyze the effect of polysaccharides on neurite outgrowth, primary mouse cortical neurons were treated with vehicle (H2O) or 1 μM of dextran, alginate, or midi-GAGR, 0.01 μM of HA-GAGR, or 0.1 μM of LA-GAGR for 2 days prior to immunocytochemistry using anti-α-tubulin antibody and secondary Alexa488nm antibody. An etched grid coverslip containing 200 numbered boxes was used to select neurons objectively for image acquisition and analysis. A total of 24 boxes were randomly selected per treatment group. All the neurons having total neurite length longer than 4 times of the diameter of neuron cell body were chosen for image analysis. The total length of the neurites of each neuron was measured using Metamorph and used to calculate average total neurite length. To examine the effect of polysaccharides on the phosphorylation (activation) of nuclear CREB, neurons were stained with anti-pCREB antibody (Abcam & Santa Cruz biotechnologies, 2nd antibody with Alexa568nm), anti-α-tubulin antibody (Sigma, 2nd antibody with Alexa488nm), and DAPI (Sigma) after two-day incubation with vehicle (H2O) or 1 μM of dextran, alginate, or midi-GAGR, 0.01 μM of HA-GAGR, or 0.1 μM of LA-GAGR. […] The images of neurons on coverslips were taken by confocal microscopy at the same gain (850), offset (˜0.01) and exposure time (2 sec). The intensity of the staining of nuclear pCREB was measured using Metamorph and used to calculate average intensity. In addition, the phosphorylation of CREB in the cytosols of mouse cortical neurons treated with polysaccharides were detected by immunoblotting. Primary mouse neurons were dissected from 16 mouse embryos (E17) and plated in the wells of 6-well plates (1×10^6 cells/well), differentiated for 6 days, and treated with polysaccharides for 48 h. Then, neurons were harvested and lysed in 1% Igepal CA-630 (Sigma)-containing PMEE buffer plus protease and phosphatase inhibitor cocktails (Sigma) for protein extraction. Extracted proteins were separated in 4-12% NuPAGE Bis-Tris protein gels (Life Technologies) and transferred to nitrocellulose membrane (GE Healthcare Life Science, Pittsburgh, Pa.) using a semidry blotter (Hoefer, Inc. San Francisco, Calif.). The protein bands on blots recognized by anti-pCREB (Santa Cruz Biotechnologies) and anti-CREB antibodies were detected on Amersham Hyperfilm™ ECL films (GE Healthcare Life Science) using SuperSignal® West Pico Chemiluminescent Substrate (Thermo Scientific).
Pharmacological agents were used to inhibit signaling molecules downstream of FGFR1 that mediate CREB phosphorylation. […] PF-573228 (PF, 1 μM) that inhibits FAK which sits at the bottleneck of the signaling pathway downstream of NCAM180 was also included to examine whether NCAM180 is involved in midi-GAGR-mediated CREB phosphorylation or not. […]

[7] = system: phosphorylated CREB in mouse embryonic cortical neurons; assay: Nuclear p-CREB immunostaining in cortical neurons (Example 2); assay type: cell-based; conditions: 1 μM, 24 h
Experimental: (§3) Differentiated PC12 cells and mouse embryonic cortical neurons (E17, DIV14) were treated with mock, dextran, alginate, HA-GAGR or midi-GAGR (1 μM) for 24 h and fixed in 3.7% paraformaldehyde. The fixed cells and neurons were immunostained with antibodies against α-tubulin and phosopho-CREB (p-CREB) along with DAPI (nucleus).

[8] = system: Differentiated dopaminergic PC12 cells; assay: LIVE/DEAD viability of differentiated PC12 cells exposed to 6-OHDA; assay type: cell-based; conditions: 1 μM for 6 h, then 30 μM 6-OHDA for 24 h
Experimental: Differentiated dopaminergic PC12 cells and primary mouse embryonic cortical neurons (E17, DIV14) were treated with mock (H2O) or 1 μM of dextran, alginate, HA-GAGR or midi-GAGR for 6 h and insulated by oxidative stressors (30 μM 6-OHDA [PC12] and 10 μM amyloid β peptide [cortical neurons]) for 24 h.

[9] = system: phosphorylated CREB in differentiated PC12 cells; assay: Nuclear p-CREB immunostaining in PC12 cells; assay type: cell-based; conditions: 1 μM, 24 h
Experimental: as §3

[10] = system: Rat cortical neurons (E17, DIV6); assay: LIVE/DEAD assay with FGFR1 inhibitor SU5402 and 4HNE; assay type: cell-based
Text: as §2, with “To examine the extent to which midi-GAGR-mediated neuroprotection depends on FGFR1, rat cortical neurons (E17, DIV5) were pre-treated with 4 μM SU5402 (Sigma) for 6 h and treated with 10 μM 4HNE and either vehicle or 1 μM midi-GAGR for 24 h prior to cell viability/cytotoxicity assay. As controls, neurons were treated with SU5402, midi-GAGR, 4HNE, 4HNE plus midi-GAGR, or SU5402 plus midi-GAGR.” left out

Compound | fold change in average total neurite length compared to vehicle [2] | neuron death after Aβ42 peptide [4] | neuron death after 4HNE [4] | neuron death after H2O2 [4] | average intensity of pCREB in midi-GAGR-treated neurons after inhibitor pre-treatment [6] | also measured
[D-Glc(β1→4)D-GlcA(β1→4)D-Glc(β1→4)L-Rha(α1→3]n [LA-GAGR] | ~1.6 fold | ~10% | 10% | ~13% | – | average intensity of nuclear pCREB compared to vehicle [1]: ~2 fold; levels of pCREB by immunoblotting compared to control [3]: significantly increased; Antioxidant capacity, ABTS assay [5]: 15.4 μM Trolox
N#CC(=C(/N)Sc1ccccc1N)/C(C#N)=C(\N)Sc1ccccc1N [U0126] | – | – | – | – | significantly decreased | –
alginate | did not enhance neuritogenesis | did not decrease | reduced | did not reduce | – | increase of the levels of nuclear p-CREB [7]: not significantly increased; 6-OHDA-induced cell death [8]: did not; increase of the levels of nuclear p-CREB [9]: not significantly increased
CN([C@@H](Cc1ccc(OS(=O)(=O)c2cccc3cnccc23)cc1)C(=O)N1CCN(c2ccccc2)CC1)S(=O)(=O)c1cccc2cnccc12 [KN-62] | – | – | – | – | decreased slightly but still statistically significantly | –
CS(=O)(=O)c1cccc(CNc2nc(Nc3ccc4c(c3)CCC(=O)N4)ncc2C(F)(F)F)c1 [PF-573228] | – | – | – | – | did not decrease | –
Cc1c[nH]c(/C=C2\C(=O)Nc3ccccc32)c1CCC(=O)O [SU5402] | – | – | – | – | significantly decreased | percent of dead cells, pre-treatment then 4HNE ([10]; SU5402 4 μM 6 h, then 10 μM 4HNE 24 h): ~80%; percent of dead cells without 4HNE ([10]; SU5402 4 μM, midi-GAGR 1 μM): did not increase
